Some test systems named below: HCT-116 colon; M14 melanoma; OVCAR-5 ovarian; SK-MEL-5 melanoma; HL-60(TB) leukemia; SK-OV-3 ovarian; K-562 leukemia; NCI-H522 lung; HCC-2998 colon.
Common to all, as to experiment: growth of human tumour cells (NCI), 48 h

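Dose response: 5 concentrations. Exposure: 48 h. Format: 96-well plates. Endpoint: linear interpolation; highest concentration if not reached. Here, GI50 denotes the concentration required for 50% inhibition of growth. TGI denotes the concentration required for complete inhibition of growth.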 Bounds are passed on as bounds.

Regarding `CC(=O)OC1C(O[C@H]2CC[C@]34O[C@]35CC[C@]3(C)C(C6(C)CC[C@@H](C(C)(C)O)O6)[C@@H](O)CC3(C)[C@@H]5CC(OC3OC(CO)C(O)C(O)C3O)C4C2(C)C)OCC(O)C1O` (some centres not stated), the TGI in the experiment with HCT-116 colon was over 100 µM; in the experiment with M14 melanoma it was over 100 µM; in the experiment on OVCAR-5 ovarian, over 100 µM; in the experiment on SK-MEL-5 melanoma, over 100 µM; with HL-60(TB) leukemia it was over 53.3 µM; in the experiment with SK-OV-3 ovarian, over 100 µM. For the same compound, the TGI was over 74.8 µM in the experiment with K-562 leukemia, over 100 µM in the experiment with NCI-H522 lung and over 100 µM with HCC-2998 colon.
With `O=C([CH-]C(=O)c1ccccc1)c1ccccc1.O=C([CH-]C(=O)c1ccccc1)c1ccccc1.O=C([CH-]C(=O)c1ccccc1)c1ccccc1.[Cl-].[Zr+4]`, the GI50 in the experiment with M14 melanoma was 12.6 µM; in the experiment on OVCAR-5 ovarian, 53.8 µM; with SK-MEL-5 melanoma, 22.9 µM; in the experiment with SK-OV-3 ovarian, 37.8 µM; with K-562 leukemia it was 8.02 µM; in the experiment with NCI-H522 lung it was 11.4 µM. Further, the TGI with M14 melanoma is 39 µM; in the experiment on OVCAR-5 ovarian, over 100 µM; with SK-MEL-5 melanoma it was 60.6 µM; in the experiment with SK-OV-3 ovarian it was 74.5 µM; with K-562 leukemia, 25.5 µM; in the experiment on NCI-H522 lung, 46.6 µM.
As to `CCN(CC)c1ccc2nc3ccc(N=Nc4ccc(O)cc4)cc3[n+](-c3ccccc3)c2c1`, the GI50 is 2.66 µM in the experiment on HCT-116 colon; 2.29 µM with M14 melanoma; 20.8 µM in the experiment with OVCAR-5 ovarian; 2.92 µM in the experiment on SK-MEL-5 melanoma; 35.7 µM in the experiment on SK-OV-3 ovarian; 4.51 µM in the experiment with HCC-2998 colon. Besides, the TGI with HCT-116 colon was 10.6 µM; in the experiment with M14 melanoma it was 4.79 µM; in the experiment with OVCAR-5 ovarian, 73.7 µM; in the experiment with SK-MEL-5 melanoma it was 12.2 µM; in the experiment on SK-OV-3 ovarian, over 100 µM; with HCC-2998 colon it was 16.4 µM.
As for `O=C1Nc2ccccc2/C1=C/c1cn(CC(O)Cn2cc(/C=C3\C(=O)Nc4ccccc43)c3ccccc32)c2ccccc12` (configuration not stated), the GI50 is 1.66 µM in the experiment on HCT-116 colon; 1.32 µM in the experiment on M14 melanoma; 1.74 µM with OVCAR-5 ovarian; 1.98 µM with SK-MEL-5 melanoma; 2.95 µM in the experiment on HL-60(TB) leukemia; 1.65 µM with SK-OV-3 ovarian. Also, the GI50 is 1.19 µM in the experiment with K-562 leukemia and 2.28 µM in the experiment on HCC-2998 colon. The TGI in the experiment on HCT-116 colon is 4.13 µM; in the experiment on M14 melanoma, 2.83 µM; with OVCAR-5 ovarian, 4.53 µM; with SK-MEL-5 melanoma, 3.82 µM; in the experiment with HL-60(TB) leukemia it was 10.8 µM; in the experiment on SK-OV-3 ovarian it was 3.68 µM. Further, the TGI with K-562 leukemia was 3.56 µM; with HCC-2998 colon, 5.21 µM.
On to `COc1cc(CN(c2ccc(C)cc2)C2OC(=O)c3ccccc32)cc(OC)c1OC` (configuration not stated), for which the GI50 in the experiment with HCT-116 colon is 0.501 µM; in the experiment on M14 melanoma, 0.43 µM; with OVCAR-5 ovarian, 1.58 µM; in the experiment on SK-MEL-5 melanoma, 0.271 µM; in the experiment with HL-60(TB) leukemia it was 0.406 µM; in the experiment on SK-OV-3 ovarian, 0.472 µM. For the same compound, the GI50 is 0.365 µM in the experiment on K-562 leukemia, 0.47 µM with NCI-H522 lung and 0.877 µM in the experiment with HCC-2998 colon. Besides, the TGI in the experiment with HCT-116 colon is over 100 µM; with M14 melanoma, over 100 µM; in the experiment with OVCAR-5 ovarian it was over 100 µM; with SK-MEL-5 melanoma, 1.76 µM; with HL-60(TB) leukemia, 33.7 µM; in the experiment with SK-OV-3 ovarian, over 57.9 µM. In addition, the TGI is over 100 µM in the experiment on K-562 leukemia, 4.24 µM in the experiment with NCI-H522 lung and over 31.2 µM with HCC-2998 colon.
In the case of `CCOC(=O)C1=C(C(=O)OCC)C2(c3ccccc3)N(O1)c1ccccc1C2(C)C` (configuration not stated), the TGI is over 100 µM in the experiment with HCT-116 colon; over 100 µM in the experiment on M14 melanoma; over 100 µM in the experiment with OVCAR-5 ovarian; over 100 µM in the experiment with SK-MEL-5 melanoma; 53 µM with HL-60(TB) leukemia; 95.2 µM in the experiment with SK-OV-3 ovarian. The TGI in the experiment with K-562 leukemia is over 100 µM; in the experiment with NCI-H522 lung, 63.8 µM; in the experiment on HCC-2998 colon, over 100 µM.
Regarding `COc1cc(-c2nccc3cc4c(cc23)OCO4)cc(OC)c1OC`, the GI50 in the experiment on HCT-116 colon was 4.56 µM; with M14 melanoma it was 3.36 µM; in the experiment on OVCAR-5 ovarian it was 24.9 µM; in the experiment on SK-MEL-5 melanoma, 3.16 µM; with SK-OV-3 ovarian it was 4.48 µM; in the experiment on NCI-H522 lung it was 2.33 µM. Besides, in the experiment on HCC-2998 colon, the GI50 was 8.68 µM. In addition, the TGI in the experiment with HCT-116 colon is over 100 µM; in the experiment with M14 melanoma it was 23.2 µM; in the experiment on OVCAR-5 ovarian, over 100 µM; in the experiment on SK-MEL-5 melanoma, over 100 µM; in the experiment on SK-OV-3 ovarian it was over 100 µM; with NCI-H522 lung it was 27.4 µM. In addition, the TGI with HCC-2998 colon came out at 51.7 µM.
Consider `COc1cc2nc(-c3cccc4cccnc34)nc(NC3CCN(Cc4ccccc4)CC3)c2cc1OC`, for which the GI50 is 0.158 µM in the experiment with HCT-116 colon; 1.52 µM with M14 melanoma; 1.3 µM with OVCAR-5 ovarian; 1.66 µM in the experiment with SK-MEL-5 melanoma; 1.56 µM in the experiment on SK-OV-3 ovarian; 1.45 µM in the experiment on NCI-H522 lung. Further, the GI50 in the experiment on HCC-2998 colon was 1.72 µM. For the same compound, the TGI is 0.338 µM in the experiment on HCT-116 colon; 3.4 µM in the experiment on M14 melanoma; 2.73 µM in the experiment with OVCAR-5 ovarian; 3.18 µM with SK-MEL-5 melanoma; 3.22 µM in the experiment on SK-OV-3 ovarian; 3.98 µM in the experiment on NCI-H522 lung. The TGI in the experiment with HCC-2998 colon is 3.16 µM.
`Nc1nc2c(ccc3ccccc32)s1`: the GI50 was over 100 µM in the experiment on HCT-116 colon; over 100 µM in the experiment on M14 melanoma; over 100 µM with OVCAR-5 ovarian; 72.7 µM in the experiment with SK-MEL-5 melanoma; 91.5 µM with K-562 leukemia; over 100 µM in the experiment with NCI-H522 lung. Besides, the GI50 in the experiment on HCC-2998 colon was 50.6 µM. In addition, the TGI with HCT-116 colon, with M14 melanoma, in the experiment with OVCAR-5 ovarian, in the experiment with SK-MEL-5 melanoma, in the experiment with K-562 leukemia and in the experiment on NCI-H522 lung was over 100 µM each time. The same compound had a TGI in the experiment on HCC-2998 colon of over 100 µM.
In the case of `c1cc[c]([Sn]([O]c2cccc3cccnc23)([O]c2cccc3cccnc23)[c]2ccccc2)cc1`, the GI50 in the experiment on HCT-116 colon is 0.199 µM; in the experiment on M14 melanoma it was 0.198 µM; with SK-MEL-5 melanoma, 0.245 µM; in the experiment with HL-60(TB) leukemia, 0.144 µM; in the experiment with SK-OV-3 ovarian, 1.83 µM; with K-562 leukemia, 0.221 µM. Also, the GI50 in the experiment with HCC-2998 colon is 2.48 µM. The TGI was 0.393 µM in the experiment on HCT-116 colon; 0.4 µM with M14 melanoma; 0.593 µM in the experiment with SK-MEL-5 melanoma; 0.351 µM in the experiment with HL-60(TB) leukemia; 3.24 µM with SK-OV-3 ovarian; 0.631 µM with K-562 leukemia. In the experiment with HCC-2998 colon, this compound gave a TGI of 9.62 µM.

(Values after PubChem BioAssay (NCI).)
